Data: US7851474B2, “Dipiperazinyl ketones and related analogues” (Neurogen Corporation, priority 2005, dated 2010)

These molecules were tested against T1, chimeric human H3 receptor (Homo sapiens, UniProt Q9Y5N1, E19D) (assay: Chimeric human H3 receptor screening GTP binding assay (inhibition of histamine-stimulated GTP-gamma35S binding, Example 8)). Settings: 1 h; "+" in Ki of Table II; assay of Example 8; read-out: percent inhibition of agonist-induced GTP-gammaS binding to H3.
T1 construct: made in house; host or cells: Sf9 insect cells (baculovirus infection); P2 membrane preparation
T1 sequence (Q9Y5N1 with tags, fused parts or gaps E19D): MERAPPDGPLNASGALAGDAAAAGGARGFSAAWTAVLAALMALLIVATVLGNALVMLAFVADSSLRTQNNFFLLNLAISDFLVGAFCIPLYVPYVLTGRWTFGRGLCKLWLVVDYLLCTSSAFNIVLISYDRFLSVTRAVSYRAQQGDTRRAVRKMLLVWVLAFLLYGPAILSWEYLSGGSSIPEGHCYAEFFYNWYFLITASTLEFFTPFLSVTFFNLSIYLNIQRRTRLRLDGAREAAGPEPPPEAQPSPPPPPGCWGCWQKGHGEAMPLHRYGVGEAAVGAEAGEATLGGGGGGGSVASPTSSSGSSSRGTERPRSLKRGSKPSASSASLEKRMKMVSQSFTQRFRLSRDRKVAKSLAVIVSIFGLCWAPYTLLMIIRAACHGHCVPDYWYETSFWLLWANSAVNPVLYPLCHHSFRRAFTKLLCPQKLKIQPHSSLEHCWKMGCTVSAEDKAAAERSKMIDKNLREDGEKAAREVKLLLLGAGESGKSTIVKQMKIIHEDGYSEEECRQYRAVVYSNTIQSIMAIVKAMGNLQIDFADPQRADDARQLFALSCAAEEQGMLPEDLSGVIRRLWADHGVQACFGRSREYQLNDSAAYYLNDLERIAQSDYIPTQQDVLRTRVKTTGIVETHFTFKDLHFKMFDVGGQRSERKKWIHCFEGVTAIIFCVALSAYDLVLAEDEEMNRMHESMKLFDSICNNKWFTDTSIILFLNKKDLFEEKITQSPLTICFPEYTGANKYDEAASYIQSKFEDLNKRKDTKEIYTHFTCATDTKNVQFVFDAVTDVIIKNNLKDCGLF
Format: biochemical
Procedure: This Example illustrates a representative screening assay for evaluating inhibition of histamine-stimulated GTP-gamma^35S binding. Such GTP binding activity can be used to identify H3 antagonists and inverse agonists. A compound analyzed in this assay is referred to herein as a “test compound,” and the initial identification of antagonists and inverse agonists is performed using a test compound concentration of 4 μM.
Four independent baculoviral stocks (one directing the expression of the chimeric human H3 receptor and three directing the expression of each of the three subunits of a heterotrimeric G-protein) are used to infect a culture of Sf9 cells as described above. P2 membranes are prepared as described above, and are resuspended by Dounce homogenization (tight pestle) in GTP binding assay buffer (50 mM Tris pH 7.4, 120 mM NaCl, 5 mM MgCl2, 2 mM EGTA, 1 mg/ml BSA, 0.2 mg/ml bacitracin, 0.02 mg/ml aprotinin, 0.01 mg/ml saponin, 10 μM GDP) and added to assay tubes at a concentration of 35 μg protein/reaction tube. Non-radiolabeled test compounds are added to separate reactions at a concentration of 4 μM along with 1 μM histamine (agonist). Reactions are initiated by the addition of 125 pM GTP-gamma^35S with a final assay volume of 0.20 ml.
After a 60-min incubation at room temperature, reactions are terminated by vacuum filtration over GF/C filters (pre-soaked in 50 mM Tris pH 7.4, 120 mM NaCl plus 0.1% BSA) followed by washing with ice-cold buffer (50 mM Tris pH 7.4, 120 mM NaCl). The amount of receptor-bound (and thereby membrane-bound) GTP-gamma^35S is determined by measuring the bound radioactivity, preferably by liquid scintillation spectrometry of the washed filters. Non-specific binding is determined using 10 uM GTP-gammaS and typically represents less than 5 percent of total binding. After subtraction of non-specific binding, data is expressed as percent inhibition of 1 μM histamine signal.
Neutral antagonists are those test compounds that reduce the histamine-stimulated GTP binding activity towards, but not below, baseline levels. In contrast, in the absence of added histamine, inverse agonists reduce the GTP binding activity of the receptor-containing membranes below baseline. Any test compound that elevates GTP binding activity above baseline in the absence of added histamine in this assay is defined as having agonist activity.
O=C(CN1CCN(C(=O)c2cc(C(F)(F)F)ccc2Cl)CC1)N1CCN(C2CCC2)CC1 [Compound 452, 1-[2-chloro-5-(trifluoromethyl)benzoyl]-4-[2-(4-cyclobutylpiperazin-1-yl)-2-oxoethyl]piperazine] was tested, and the inhibition at 4 µM was > 90%. For O=C(CN1CCN(C(=O)c2cc(C(F)(F)F)cc(C(F)(F)F)c2)CC1)N1CCN(C2CCC2)CC1 [Compound 456, 1-[3,5-bis(trifluoromethyl)benzoyl]-4-[2-(4-cyclobutylpiperazin-1-yl)-2-oxoethyl]piperazine], the inhibition at 4 µM was > 90%. In the case of O=C(CN1CCN(C(=O)c2cc(-c3ccc(Cl)cc3)oc2C(F)(F)F)CC1)N1CCN(C2CCC2)CC1 [Compound 469, 1-[5-(4-chlorophenyl)-2-(trifluoromethyl)-3-furoyl]-4-[2-(4-cyclobutylpiperazin-1-yl)-2-oxoethyl]piperazine], the inhibition at 4 µM was > 90%.

Same assay, conditions: 1 h; assay described in Example 8; symbol + in column headed Ki of Table II; read-out: percent inhibition of agonist-induced GTP-gammaS binding to H3
With O=C(/C=C/c1ccccc1Cl)N1CCN(CC(=O)N2CCN(C3CCC3)CC2)CC1 [Compound 389, 1-[(2E)-3-(2-chlorophenyl)prop-2-enoyl]-4-[2-(4-cyclobutylpiperazin-1-yl)-2-oxoethyl]piperazine] the inhibition at 4 µM was > 90%. With O=C(/C=C/c1cccc(Cl)c1)N1CCN(CC(=O)N2CCN(C3CCC3)CC2)CC1 [Compound 390, 1-[(2E)-3-(3-chlorophenyl)prop-2-enoyl]-4-[2-(4-cyclobutylpiperazin-1-yl)-2-oxoethyl]piperazine] the inhibition at 4 µM was > 90%. O=C(/C=C/c1ccc(Cl)cc1)N1CCN(CC(=O)N2CCN(C3CCC3)CC2)CC1 [Compound 391, 1-[(2E)-3-(4-chlorophenyl)prop-2-enoyl]-4-[2-(4-cyclobutylpiperazin-1-yl)-2-oxoethyl]piperazine] was tested, and the inhibition at 4 µM was > 90%. CCOc1ccc(Br)cc1/C=C/C(=O)N1CCN(CC(=O)N2CCN(C3CCC3)CC2)CC1 [Compound 392, 1-[(2E)-3-(5-bromo-2-ethoxyphenyl)prop-2-enoyl]-4-[2-(4-cyclobutylpiperazin-1-yl)-2-oxoethyl]piperazine] was tested, and the inhibition at 4 µM was > 90%. In the case of COc1ccc(Br)cc1/C=C/C(=O)N1CCN(CC(=O)N2CCN(C3CCC3)CC2)CC1 [Compound 393, 1-[(2E)-3-(5-bromo-2-methoxyphenyl)prop-2-enoyl]-4-[2-(4-cyclobutylpiperazin-1-yl)-2-oxoethyl]piperazine], the inhibition at 4 µM was > 90%. For O=C(/C=C/c1ccc(-c2ccccc2)cc1)N1CCN(CC(=O)N2CCN(C3CCC3)CC2)CC1 [Compound 394, 1-[(2E)-3-biphenyl-4-ylprop-2-enoyl]-4-[2-(4-cyclobutylpiperazin-1-yl)-2-oxoethyl]piperazine], the inhibition at 4 µM was > 90%. O=C(CN1CCN(C(=O)c2sccc2Br)CC1)N1CCN(C2CCC2)CC1 [Compound 395, 1-[(3-bromo-2-thienyl)carbonyl]-4-[2-(4-cyclobutylpiperazin-1-yl)-2-oxoethyl]piperazine] was tested, and the inhibition at 4 µM was > 90%. With O=C(Cc1cccc(Br)c1)N1CCN(CC(=O)N2CCN(C3CCC3)CC2)CC1 [Compound 396, 1-[(3-bromophenyl)acetyl]-4-[2-(4-cyclobutylpiperazin-1-yl)-2-oxoethyl]piperazine] the inhibition at 4 µM was > 90%. With O=C(CN1CCN(C(=O)c2sc3ccccc3c2Cl)CC1)N1CCN(C2CCC2)CC1 [Compound 397, 1-[(3-chloro-1-benzothien-2-yl)carbonyl]-4-[2-(4-cyclobutylpiperazin-1-yl)-2-oxoethyl]piperazine] the inhibition at 4 µM was > 90%. In the case of O=C(CN1CCN(C(=O)c2sccc2Cl)CC1)N1CCN(C2CCC2)CC1 [Compound 398, 1-[(3-chloro-2-thienyl)carbonyl]-4-[2-(4-cyclobutylpiperazin-1-yl)-2-oxoethyl]piperazine], the inhibition at 4 µM was > 90%. O=C(COc1cccc(Cl)c1)N1CCN(CC(=O)N2CCN(C3CCC3)CC2)CC1 [Compound 399, 1-[(3-chlorophenoxy)acetyl]-4-[2-(4-cyclobutylpiperazin-1-yl)-2-oxoethyl]piperazine] was tested, and the inhibition at 4 µM was > 90%. In the case of O=C(Cc1cccc(Cl)c1)N1CCN(CC(=O)N2CCN(C3CCC3)CC2)CC1 [Compound 400, 1-[(3-chlorophenyl)acetyl]-4-[2-(4-cyclobutylpiperazin-1-yl)-2-oxoethyl]piperazine], the inhibition at 4 µM was > 90%. With Cn1nc(C(C)(C)C)cc1C(=O)N1CCN(CC(=O)N2CCN(C3CCC3)CC2)CC1 [Compound 401, 1-[(3-tert-butyl-1-methyl-1H-pyrazol-5-yl)carbonyl]-4-[2-(4-cyclobutylpiperazin-1-yl)-2-oxoethyl]piperazine] the inhibition at 4 µM was > 90%. In the case of CCn1nc(C)c(Br)c1C(=O)N1CCN(CC(=O)N2CCN(C3CCC3)CC2)CC1 [Compound 402, 1-[(4-bromo-1-ethyl-3-methyl-1H-pyrazol-5-yl)carbonyl]-4-[2-(4-cyclobutylpiperazin-1-yl)-2-oxoethyl]piperazine], the inhibition at 4 µM was > 90%. In the case of O=C(Cc1ccc(Br)cc1)N1CCN(CC(=O)N2CCN(C3CCC3)CC2)CC1 [Compound 403, 1-[(4-bromophenyl)acetyl]-4-[2-(4-cyclobutylpiperazin-1-yl)-2-oxoethyl]piperazine], the inhibition at 4 µM was > 90%. In the case of COc1cc(Cl)ccc1OCC(=O)N1CCN(CC(=O)N2CCN(C3CCC3)CC2)CC1 [Compound 404, 1-[(4-chloro-2-methoxyphenoxy)acetyl]-4-[2-(4-cyclobutylpiperazin-1-yl)-2-oxoethyl]piperazine], the inhibition at 4 µM was > 90%. In the case of Cc1cc(Cl)ccc1OCC(=O)N1CCN(CC(=O)N2CCN(C3CCC3)CC2)CC1 [Compound 405, 1-[(4-chloro-2-methylphenoxy)acetyl]-4-[2-(4-cyclobutylpiperazin-1-yl)-2-oxoethyl]piperazine], the inhibition at 4 µM was > 90%. O=C(COc1ccc(Cl)cc1)N1CCN(CC(=O)N2CCN(C3CCC3)CC2)CC1 [Compound 406, 1-[(4-chlorophenoxy)acetyl]-4-[2-(4-cyclobutylpiperazin-1-yl)-2-oxoethyl]piperazine] was tested, and the inhibition at 4 µM was > 90%. With O=C(Cc1ccc(Cl)cc1)N1CCN(CC(=O)N2CCN(C3CCC3)CC2)CC1 [Compound 407, 1-[(4-chlorophenyl)acetyl]-4-[2-(4-cyclobutylpiperazin-1-yl)-2-oxoethyl]piperazine] the inhibition at 4 µM was > 90%. In the case of CC(C)(C)c1ccc(OCC(=O)N2CCN(CC(=O)N3CCN(C4CCC4)CC3)CC2)cc1 [Compound 408, 1-[(4-tert-butylphenoxy)acetyl]-4-[2-(4-cyclobutylpiperazin-1-yl)-2-oxoethyl]piperazine], the inhibition at 4 µM was > 90%. In the case of O=C(CN1CCN(C(=O)c2ccc(Br)s2)CC1)N1CCN(C2CCC2)CC1 [Compound 410, 1-[(5-bromo-2-thienyl)carbonyl]-4-[2-(4-cyclobutylpiperazin-1-yl)-2-oxoethyl]piperazine], the inhibition at 4 µM was > 90%. With O=C(CN1CCN(C(=O)c2cncc(Br)c2)CC1)N1CCN(C2CCC2)CC1 [Compound 411, 1-[(5-bromopyridin-3-yl)carbonyl]-4-[2-(4-cyclobutylpiperazin-1-yl)-2-oxoethyl]piperazine] the inhibition at 4 µM was > 90%. With CCCCc1ccc(C(=O)N2CCN(CC(=O)N3CCN(C4CCC4)CC3)CC2)nc1 [Compound 412, 1-[(5-butylpyridin-2-yl)carbonyl]-4-[2-(4-cyclobutylpiperazin-1-yl)-2-oxoethyl]piperazine] the inhibition at 4 µM was > 90%. With COc1ncc(Cl)cc1C(=O)N1CCN(CC(=O)N2CCN(C3CCC3)CC2)CC1 [Compound 413, 1-[(5-chloro-2-methoxypyridin-3-yl)carbonyl]-4-[2-(4-cyclobutylpiperazin-1-yl)-2-oxoethyl]piperazine] the inhibition at 4 µM was > 90%. In the case of O=C(CN1CCN(C(=O)c2ccc(Cl)s2)CC1)N1CCN(C2CCC2)CC1 [Compound 414, 1-[(5-chloro-2-thienyl)carbonyl]-4-[2-(4-cyclobutylpiperazin-1-yl)-2-oxoethyl]piperazine], the inhibition at 4 µM was > 90%. O=C(CN1CCN(C(=O)c2ccc(Cl)nc2)CC1)N1CCN(C2CCC2)CC1 [Compound 416, 1-[(6-chloropyridin-3-yl)carbonyl]-4-[2-(4-cyclobutylpiperazin-1-yl)-2-oxoethyl]piperazine] was tested, and the inhibition at 4 µM was > 90%. With O=C(CN1CCN(C(=O)c2ccccc2Oc2ccc(Cl)cc2)CC1)N1CCN(C2CCC2)CC1 [Compound 419, 1-[2-(4-chlorophenoxy)benzoyl]-4-[2-(4-cyclobutylpiperazin-1-yl)-2-oxoethyl]piperazine] the inhibition at 4 µM was > 90%. CC(Oc1ccc(Cl)cc1)C(=O)N1CCN(CC(=O)N2CCN(C3CCC3)CC2)CC1 (stereo not shown) [Compound 420, 1-[2-(4-chlorophenoxy)propanoyl]-4-[2-(4-cyclobutylpiperazin-1-yl)-2-oxoethyl]piperazine] was tested, and the inhibition at 4 µM was > 90%.
